Source: patent US12570617B2 (Kyungpook National University Industry-Academic Cooperation …, priority 2020, dated 2026)

Columns and labels:
[1] = tested on: postoperative ileus (POI) mouse model; assay: Colon transit time of feces in postoperative ileus (POI) mouse model; format: in vivo; settings: POI mice; for colon transit time of feces: oral 30 mg/kg 4 hours after POI surgery; for colon transit time of feces / feed intake: vs PBS; for body weight / feed intake: 24 hours
Experimental: (§1) Mice aged 6-8 weeks were fasted for one day and then anesthetized with a mixture of ketamine and xylazine. The abdomen and peritoneum were then incised, and the small intestine was exposed on a sterile gauze pad. Manipulation was performed from the duodenum to the cecum for 5 minutes by using a sterile cotton swab. After surgery, the abdomen was sutured and the mice were allowed to recover for 4 hours in a cage maintained at 32 degrees.
To evaluate the colon transit time of feces, 200 ul of trypan blue dye was injected into the proximal colon before suturing after POI surgery. A triazole compound (30 mg/kg) was orally administered 4 hours after POI surgery. The mouse was transferred to a metabolic cage, and the weighed feed was administered thereinto, and the time at which the first feces stained with trypan blue appeared was measured for 24 hours. At the 24th hour, the number and weight of feces were measured, and the weight of the consumed feed and the mouse's body weight were measured.

[2] = tested on: postoperative ileus (POI) mouse model; assay: Delayed gastric emptying in postoperative ileus (POI) mouse model; format: in vivo; settings: POI mice, oral 10, 20, 30 mg/kg 20 hours after POI surgery
Experimental: as §1
Triazole compounds (10 mg/kg, 20 mg/kg and 30 mg/kg) were orally administered 20 hours after POI surgery. […] After 30 minutes, the stomach of the mouse was removed and put into a 0.1N NaOH 2 ml solution to homogenize same. 3 ml of 0.1N NaOH solution was added and centrifuged at 3000 rpm at 4 degrees for 10 minutes. After adding […] of 20% trichloroacetic acid to the supernatant, the mixture was centrifuged at 3000 rpm at 4 degrees for 10 minutes. […] The percentage of the gastric emptying delay was calculated by (1−(absorbance of test sample)/(baseline control absorbance)×100.

[3] = tested on: cancer cachexia mouse model; assay: Cancer cachexia mouse model (CT26): grip test, Rota-rod test, cancer size, body weight, feed intake, fat and muscle weight; format: in vivo; settings: cancer cachexia mice; for body weight / cancer size / muscle mass / subcutaneous fat weight / total fat weight / visceral fat weight / daily feed intake: oral 10 mg/kg daily; for muscle mass / subcutaneous fat weight / total fat weight / visceral fat weight: 20th day
Experimental: Cultured 1×10^6 cells were subcutaneously injected into the right side of the abdomen of 10-week-old mice. The size of the cancer grown in the right abdomen, body weight, and feed intake were measured once every time after cell injection, and 10 mg/kg of a triazole compound was orally administered daily from the 9th day. On the 18th day of cancer cell injection, each of the grip test and Rota-rod test for evaluating the muscle function was performed for 1 day. On the 20th day, subcutaneous fat, visceral fat and muscle (femur, calf) of the mouse were separated and weighed.
For the evaluation of muscle function, the grip test was performed by holding the mouse by having the mouse hold the metal grid attached to the grip strength meter, holding the tail of the mouse, and pulling it from behind horizontally. The force applied to the metal grid immediately before losing the grip was recorded in the measuring instrument as the maximum tension in g, and the entire process was performed 9 times per subject to record the average value. In the Rota-rod test (Ugo Basile, Comerio, VA, Italy), Rota-rod exercise was performed at least three times at a rotational speed of 4 rpm by using a machine equipped with a rod with the diameter of 3 cm appropriately processed to provide grip to measure the endurance time of the tested animals in seconds and record the average value. Each Rota-rod behavior test was not to exceed 5 minutes per time.

ghrelin receptor [4] = molecular target: T1, ghrelin receptor (Homo sapiens, UniProt Q92847); assay: Intracellular calcium influx in HEK293 cells overexpressing a ghrelin receptor; format: cell-based; set-up: host or cells: HEK293 (ATCC); settings: read-out: EC50, concentration capable of inducing 50% intracellular calcium influx
Experimental: Human embryonic kidney 293 (HEK293) cells were purchased from ATCC and cultured in a DMEM medium comprising 10% FBS at 37° C. and in 5% CO2.
After treating the cells with 100 ul of a wash buffer, fluorescently labeled intracellular calcium was imaged at an excitation wavelength of 485 nm and an emission wavelength of 520 nm for 1 minute at a shutter interval of 10 seconds under a laser scanning confocal microscope equipped with a temperature and humidity control equipment. […] Intracellular calcium fluorescence intensity by treatment with compounds was quantified by calculating same based on the fluorescence intensity when not treated with compounds.
Target sequence in this assay (Q92847 whole entry): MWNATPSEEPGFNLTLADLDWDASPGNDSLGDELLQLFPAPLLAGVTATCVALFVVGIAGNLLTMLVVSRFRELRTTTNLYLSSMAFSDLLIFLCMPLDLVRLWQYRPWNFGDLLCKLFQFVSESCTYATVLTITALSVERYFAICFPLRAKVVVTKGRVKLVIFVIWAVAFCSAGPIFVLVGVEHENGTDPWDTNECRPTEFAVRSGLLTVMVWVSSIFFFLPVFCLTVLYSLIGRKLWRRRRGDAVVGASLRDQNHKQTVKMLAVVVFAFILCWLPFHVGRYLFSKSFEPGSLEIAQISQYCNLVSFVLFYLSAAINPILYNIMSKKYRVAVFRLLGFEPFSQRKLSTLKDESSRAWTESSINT

ghrelin receptor [5] = molecular target: T1, ghrelin receptor; assay: G protein coupled receptor agonist analysis (Eurofins Discovery), ghrelin receptor; format: cell-based; set-up: Eurofins Discovery; dose or concentration left out as unconfirmed; settings: compound alone (agonist effect)
Experimental: (§2) The efficacy of triazole compounds […] as agonists and antagonists for a total of 170 types of G protein-coupled receptors was performed by Eurofins Discovery.
(§3) The family of G protein-coupled receptors comprises many types of receptors comprising a ghrelin receptor. It was checked whether or not the triazole compounds have efficacy as agonists or antagonists of different types of G protein-coupled receptors.
Target sequence in this assay (Q92847 whole entry, species assumed): as the sequence (Q92847 whole entry) above

[6] = tested on: 170 G protein-coupled receptors; assay: G protein coupled receptor agonist and antagonist analysis, panel of 170 receptors (Eurofins Discovery); format: cell-based; set-up: dose or concentration left out as unconfirmed; settings: alone (agonist effect) or together with ligands for each receptor (antagonist effect)
Experimental: as §2, §3

Row | EC50 (ghrelin receptor [4]) [nM] | efficacy as a ghrelin receptor agonist (ghrelin receptor [5]) [%] | specificity among 170 G protein-coupled receptors (agonist or antagonist efficacy) [6] | Structure (SMILES) | colon transit time of feces [1] | body weight ([1]; oral 30 mg/kg) | feed intake ([1]; oral 30 mg/kg) | delayed gastric emptying [2] | body weight [3] | cancer size [3] | muscle mass ([3]; vs Vehicle) | subcutaneous fat weight ([3]; vs Vehicle) | total fat weight ([3]; vs Vehicle) | visceral fat weight ([3]; vs Vehicle) | daily feed intake ([3]; vs Vehicle) | muscle strength function (Grip test and Rota-rod test) ([3]; oral 10 mg/kg once daily from 9th day, tested 18th day, vs Vehicle) | number and weight of feces ([1]; oral 30 mg/kg, at the 24th hour)
1 | 189 |  |  | CCCCCCCCCCn1cc(C(N)(CO)CO)nn1 [KARI101, 2-amino-2-(1-decyl-1H-1,2,3-triazol-4-yl) propane-1,3-diol] | significantly reduced | no change | increased | significant improvement | did not affect | did not affect | increased | increased | increased | increased | increased | significantly improved | 
2 | 128 |  |  | CCCCCCCCCCCCn1cc(C(N)(CO)CO)nn1 [KARI001, 2-amino-2-(1-dodecyl-1H-1,2,3-triazol-4-yl)propane-1,3-diol] |  |  |  |  |  |  |  |  |  |  |  |  | 
3 |  | 83.7 | ghrelin receptor-specific agonist | CCCCCCCCCn1cc(C(N)(CO)CO)nn1 [KARI201, 2-amino-2-(1-nonyl-1H-1,2,3-triazol-4-yl)propane-1,3-diol] | significantly reduced | no change | increased | significant improvement | did not affect | did not affect | increased | increased | increased | increased | increased |  | increased
